Paper PMC12635268, “Novel antimicrobial peptides and peptide-microbiome crosstalk in Appalachian salamander skin” (NPJ Biofilms and Microbiomes, 2025)
Read-outs that look alike come from different tables or passages of the source. Ends that are not written are not given here.

How the values were obtained:
E. coli ATCC 43888 = experiment: microbe, parasite or virus in culture
How it was run: (§1)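 Broth microdilution in cation-adjusted Mueller-Hinton broth, final inoculum 1 × 10⁵ CFU/mL, peptides 0.25 to 128 μg/mL in 0.02% TFA + 0.04% BSA. Duplicates incubated 20 h at 37 °C without agitation. MIC read visually per CLSI with image-analysis support.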

P. aeruginosa MRSN 5519 = experiment: microbe, parasite or virus in culture
How it was run: as §1

E. cloacae ATCC 13047 = experiment: microbe, parasite or virus in culture
How it was run: as §1

S. aureus ATCC 25923 = experiment: microbe, parasite or virus in culture
How it was run: as §1

E. faecium ATCC 19434 = experiment: microbe, parasite or virus in culture
How it was run: as §1

[1] = system: K. pneumoniae ATCC 700603; experiment: microbe, parasite or virus in culture; conditions: K. pneumoniae 700603; Week 2 (12/14/2023)
How it was run: as §1

P. aeruginosa ATCC 27853 = experiment: microbe, parasite or virus in culture
How it was run: as §1

S. aureus ATCC 43300 = experiment: microbe, parasite or virus in culture; conditions: S. aureus 43300; Week 2 (12/14/2023)
How it was run: as §1

E. cloacae ATCC 35549 = experiment: microbe, parasite or virus in culture
How it was run: as §1

A. baumannii ATCC 19606 = experiment: microbe, parasite or virus in culture
How it was run: as §1

K. pneumoniae ATCC 13883 = experiment: microbe, parasite or virus in culture
How it was run: as §1

E. faecium ATCC 49224 = experiment: microbe, parasite or virus in culture
How it was run: as §1

A. baumannii ATCC 17978 = experiment: microbe, parasite or virus in culture
How it was run: as §1

E. coli ATCC 35218 = experiment: microbe, parasite or virus in culture; conditions: E. coli 35218; Week 2 (12/14/2023)
How it was run: as §1

P. aeruginosa PA01 = experiment: microbe, parasite or virus in culture; type: cell-based; conditions: P. aeruginosa 15692 (PAO1); Week 2 (12/14/2023)
Description: Antimicrobial susceptibility testing of the 20 synthesized peptides against 17 bacterial strains of clinical relevance in the ESKAPEE panel was conducted using minimum inhibitory concentration (MIC) assays following the broth microdilution method outlined by Parker et al.[91]. The ESKAPEE panel is comprised of fourteen American Type Culture Collection (ATCC) strains and three Multidrug Resistant Organism Repository and Surveillance Network (MRSN) bacterial strains. These strains represent at least one drug-susceptible strain and one drug-resistant strain for each bacterium to assess drug efficacy across various resistance mechanisms. This panel is comprised of the following bacterial species and strains: E. faecium (ATCC 19434, ATCC 49224), S. aureus (ATCC 25923, ATCC 43300), K. pneumoniae (ATCC 700603, ATCC 13883, MRSN 1320), A. baumannii (ATCC 17978, ATCC 19606, MRSN 959), P. aeruginosa (ATCC 15692, ATCC 27853, MRSN 5519), E. cloacae (ATCC 13047, ATCC 35549), and E. coli (ATCC 35218, ATCC 43888). Bacteria were grown in cation-adjusted Mueller-Hinton broth (CAMHB) to achieve a final inoculum of 1 × 10⁵ CFU/mL. CAMHB is selected for its batch-to-batch reproducibility, low levels of antimicrobial inhibitors, and ability to support the growth of most bacterial pathogens.
Briefly, lyophilized peptides were dissolved in 0.2% TFA + 0.4% BSA in water to 2.56 mg/mL, ultrasonicated for 20 min, diluted 10-fold into CAMHB, and then serially diluted 2-fold in 0.02% TFA + 0.04% BSA in CAMHB and assayed at a concentration of 0.25 to 128 μg/mL. Assays were set up using the Tecan Freedom EVO liquid handling robot and software (Tecan, Switzerland) with 50 μL of bacterial inoculum and 50 μL of peptide transferred into round-bottom 96-well microtiter plates. Each plate assay was performed in duplicate and incubated at 37 °C for 20 h without agitation. Bacterial growth was assessed using the BIOMIC V3 Image Analysis system (Giles Scientific, USA) and the MIC values were determined visually according to the Clinical and Laboratory Standards Institute (CLSI) guidelines.

[2] = parameters: method as in Biomatik (vendor); conditions: 1.0 mg peptide in 1.0 ml solvent; peptides synthesized by Biomatik; ref Biomatik (vendor); cited from earlier work
[3] = system: Batrachochytrium dendrobatidis Bd-GPL strain JEL404; conditions: for Bd inhibition score (percent inhibition), mean: slope of growth, positive = inhibition, negative = no inhibition
Description: Bd-peptide challenge assays were conducted with the crude peptides extracted from the salamander skin secretions and with the 20 synthesized peptides. We followed methods by Pereria et al.[49] to conduct assays with the crude peptides using Bd-GPL strain JEL404 at 1 × 10^6 zoospores/mL. Briefly, skin peptide samples were pooled together based on species-site-injection (Table 1). Skin peptides samples were serially diluted 2-fold in MilliQ (Ultrapure Type 1) water and assayed at a concentration of 2.35–75 μg/mL based on starting peptide concentration available. For synthesized peptides, we conducted assays from 15.6 to 500 μg/ml. In both assays, we quantified percent inhibition of each well using slope of growth[90] in which positive values indicate inhibition and negative values indicate no inhibition.

A. baumannii 5075 = conditions: Week 2 (12/14/2023)
P. aeruginosa PA01 (Si) = experiment: microbe, parasite or virus in culture; type: cell-based
Text: Supplement 41522_2025_837_MOESM13_ESM.xlsx, sheet "Table_S13_ESKAPEE-MIC" | column: Bacterial MIC (µg/mL)

[4] = K. pneumoniae 4640, Week 2 (12/14/2023)
[5] = E. coli 43888, Week 2 (12/14/2023)
[6] = P. aeruginosa 5519, Week 2 (12/14/2023)
[7] = E. cloacae 13047, Week 2 (12/14/2023)
[8] = S. aureus 25923, Week 2 (12/14/2023)
[9] = E. faecium 19434, Week 2 (12/14/2023)
[10] = P. aeruginosa 27853, Week 2 (12/14/2023)
[11] = E. cloacae 35549, Week 2 (12/14/2023)
[12] = A. baumannii 19606, Week 2 (12/14/2023)
[13] = K. pneumoniae 13883, Week 2 (12/14/2023)
[14] = E. faecium 49224, Week 2 (12/14/2023)
[15] = A. baumannii 17978, Week 2 (12/14/2023)
[16] = synthesized peptide 15.625 μg/mL
[17] = synthesized peptide 31.25 μg/mL
[18] = P. aeruginosa PA01 (Si), not typical ESKAPEE strain, Week 2 (12/14/2023)

EPVPPGFTPFR [PrAd-Eb13]
-17.5569%: Bd inhibition score (percent inhibition), mean ([3]; synthesized peptide 250 μg/mL)
>128.000 µg/mL: Bacterial MIC (K. pneumoniae 4640; [4]) | Bacterial MIC (E. coli ATCC 43888; [5]) | Bacterial MIC (P. aeruginosa MRSN 5519; [6]) | Bacterial MIC (E. cloacae ATCC 13047; [7]) | Bacterial MIC (S. aureus ATCC 25923; [8]) | Bacterial MIC (E. faecium ATCC 19434; [9]) | Bacterial MIC [1] | Bacterial MIC (P. aeruginosa ATCC 27853; [10]) | Bacterial MIC (S. aureus ATCC 43300) | Bacterial MIC (E. cloacae ATCC 35549; [11]) | Bacterial MIC (A. baumannii ATCC 19606; [12]) | Bacterial MIC (K. pneumoniae ATCC 13883; [13]) | Bacterial MIC (E. faecium ATCC 49224; [14]) | Bacterial MIC (A. baumannii ATCC 17978; [15]) | Bacterial MIC (E. coli ATCC 35218) | Bacterial MIC (P. aeruginosa PA01) | Bacterial MIC (A. baumannii 5075) | Bacterial MIC (P. aeruginosa PA01 (Si); [18])
-12.696%: Bd inhibition score (percent inhibition), mean ([3]; synthesized peptide 500 μg/mL)
-15.0589%: Bd inhibition score (percent inhibition), mean ([3]; synthesized peptide 62.5 μg/mL)
-17.1018%: Bd inhibition score (percent inhibition), mean ([3]; synthesized peptide 125 μg/mL)
1.0mg peptide soluble in 1.0ml H2O: Suggest solvent (solubility) [2]
-14.7717%: Bd inhibition score (percent inhibition), mean [3, 17]
-15.8993%: Bd inhibition score (percent inhibition), mean [3, 16]

FPRPPGFTPFR [PrAd-Eb12]
3.64%: Bd inhibition score (percent inhibition), mean ([3]; synthesized peptide 125 μg/mL)
1.0mg peptide soluble in 1.0ml H2O: Suggest solvent (solubility) [2]
9.489%: Bd inhibition score (percent inhibition), mean ([3]; synthesized peptide 500 μg/mL)
4.727%: Bd inhibition score (percent inhibition), mean [3, 17]
5.096%: Bd inhibition score (percent inhibition), mean ([3]; synthesized peptide 62.5 μg/mL)
>128.000 µg/mL: Bacterial MIC (K. pneumoniae 4640; [4]) | Bacterial MIC (E. coli ATCC 43888; [5]) | Bacterial MIC (P. aeruginosa MRSN 5519; [6]) | Bacterial MIC (E. cloacae ATCC 13047; [7]) | Bacterial MIC (S. aureus ATCC 25923; [8]) | Bacterial MIC (E. faecium ATCC 19434; [9]) | Bacterial MIC [1] | Bacterial MIC (P. aeruginosa ATCC 27853; [10]) | Bacterial MIC (S. aureus ATCC 43300) | Bacterial MIC (E. cloacae ATCC 35549; [11]) | Bacterial MIC (A. baumannii ATCC 19606; [12]) | Bacterial MIC (K. pneumoniae ATCC 13883; [13]) | Bacterial MIC (E. faecium ATCC 49224; [14]) | Bacterial MIC (A. baumannii ATCC 17978; [15]) | Bacterial MIC (E. coli ATCC 35218) | Bacterial MIC (P. aeruginosa PA01) | Bacterial MIC (A. baumannii 5075) | Bacterial MIC (P. aeruginosa PA01 (Si); [18])
1–9.5%: mild Bd inhibition, average across concentrations ([3]; synthesized peptide, concentrations down to 31.25 μg/mL)
-2.358%: Bd inhibition score (percent inhibition), mean [3, 16]
0.8166%: Bd inhibition score (percent inhibition), mean ([3]; synthesized peptide 250 μg/mL)

RMIRRPPGFTPFR [PrAd-Eb10]
-10.4305%: Bd inhibition score (percent inhibition), mean [3, 16]
-12.1229%: Bd inhibition score (percent inhibition), mean ([3]; synthesized peptide 500 μg/mL)
-6.071%: Bd inhibition score (percent inhibition), mean [3, 17]
1.0mg peptide soluble in 1.0ml H2O: Suggest solvent (solubility) [2]
-13.7553%: Bd inhibition score (percent inhibition), mean ([3]; synthesized peptide 125 μg/mL)
>128.000 µg/mL: Bacterial MIC (K. pneumoniae 4640; [4]) | Bacterial MIC (E. coli ATCC 43888; [5]) | Bacterial MIC (P. aeruginosa MRSN 5519; [6]) | Bacterial MIC (E. cloacae ATCC 13047; [7]) | Bacterial MIC (S. aureus ATCC 25923; [8]) | Bacterial MIC (E. faecium ATCC 19434; [9]) | Bacterial MIC [1] | Bacterial MIC (P. aeruginosa ATCC 27853; [10]) | Bacterial MIC (S. aureus ATCC 43300) | Bacterial MIC (E. cloacae ATCC 35549; [11]) | Bacterial MIC (A. baumannii ATCC 19606; [12]) | Bacterial MIC (K. pneumoniae ATCC 13883; [13]) | Bacterial MIC (E. faecium ATCC 49224; [14]) | Bacterial MIC (A. baumannii ATCC 17978; [15]) | Bacterial MIC (E. coli ATCC 35218) | Bacterial MIC (P. aeruginosa PA01) | Bacterial MIC (A. baumannii 5075) | Bacterial MIC (P. aeruginosa PA01 (Si); [18])
-14.8924%: Bd inhibition score (percent inhibition), mean ([3]; synthesized peptide 250 μg/mL)
-6.0656%: Bd inhibition score (percent inhibition), mean ([3]; synthesized peptide 62.5 μg/mL)

SGLRGSL [PrMb-Eb19]
>128.000 µg/mL: Bacterial MIC (K. pneumoniae 4640; 4640, 20 h) | Bacterial MIC (E. coli ATCC 43888; ATCC 43888, 20 h) | Bacterial MIC (P. aeruginosa MRSN 5519; MRSN 5519, 20 h) | Bacterial MIC (E. cloacae ATCC 13047; ATCC 13047, 20 h) | Bacterial MIC (S. aureus ATCC 25923; ATCC 25923, 20 h) | Bacterial MIC (E. faecium ATCC 19434; ATCC 19434, 20 h) | Bacterial MIC [1] | Bacterial MIC (P. aeruginosa ATCC 27853; ATCC 27853, 20 h) | Bacterial MIC (S. aureus ATCC 43300) | Bacterial MIC (E. cloacae ATCC 35549; ATCC 35549, 20 h) | Bacterial MIC (A. baumannii ATCC 19606; ATCC 19606, 20 h) | Bacterial MIC (K. pneumoniae ATCC 13883; ATCC 13883, 20 h) | Bacterial MIC (E. faecium ATCC 49224; ATCC 49224, 20 h) | Bacterial MIC (A. baumannii ATCC 17978; ATCC 17978, 20 h) | Bacterial MIC (E. coli ATCC 35218) | Bacterial MIC (P. aeruginosa PA01) | Bacterial MIC (A. baumannii 5075) | Bacterial MIC (P. aeruginosa PA01 (Si); Si)
1.0mg peptide soluble in 1.0ml H2O: Suggest solvent (solubility) [2]
-38.0157%: Bd inhibition score (percent inhibition), mean ([3]; synthesized peptide 62.5 μg/mL)
